Measured values taken from patent publication US6531117B2, “Aqueous dispersion of water-insoluble organic UV filter substances” (BASF Aktiengesellschaft, priority 2000, dated 2003).

Experiment: UV absorption (absorbance coefficient)
Format: physicochemical
Conditions: 314 nm
Source text: Uvinul® T150 is notable for good UV absorption properties and an extremely high absorbance coefficient of >1500 and 314 nm.

## CCCCC(CC)COC(=O)c1ccc(Nc2nc(Nc3ccc(C(=O)OCC(CC)CCCC)cc3)nc(Nc3ccc(C(=O)OCC(CC)CCCC)cc3)n2)cc1 (stereo not shown) [Uvinul® T150, 2,4,6-trianilino-p-(carbo-2′-ethylhexyl-1′-oxy)-1,3,5-triazine]
  absorbance coefficient: > 1500
